Tested on: 855422-203-R-J1-PDC complex spheroid viability
Test: Anticancer human tumor 855422-203-R-J1-PDC patient-derived bladder carcinoma cell line growth inhibition [POLQ]
Conditions: for IC50: curve of first compound; for viability, T/C: stronger effect = lower value; active = viability on the fitted dose curve at most 10% of control; inactive = the rest
Outline: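 Three-cell-type spheroids modelling solid tumor plus stroma served as the readout system; POL inhibitors were tested individually and in combination, concentration ranges set by clinical Cmax where known.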

[1] = second compound 0.0316 µM, first compound 0.0316 µM
[2] = second compound 0.0316 µM, first compound 0.1 µM
[3] = second compound 0.0316 µM, first compound 0.316 µM
[4] = second compound 0.0316 µM, first compound 1 µM
[5] = second compound 0.0316 µM, first compound 3.16 µM
[6] = second compound 0.0316 µM, first compound 10 µM
[7] = second compound 0.1 µM, first compound 0.0316 µM
[8] = second compound 0.1 µM, first compound 0.1 µM
[9] = second compound 0.1 µM, first compound 0.316 µM
[10] = second compound 0.1 µM, first compound 1 µM
[11] = second compound 0.1 µM, first compound 3.16 µM
[12] = second compound 0.1 µM, first compound 10 µM
[13] = second compound 0.316 µM, first compound 0.0316 µM
[14] = second compound 0.316 µM, first compound 0.1 µM
[15] = second compound 0.316 µM, first compound 0.316 µM
[16] = second compound 0.316 µM, first compound 1 µM
[17] = second compound 0.316 µM, first compound 3.16 µM
[18] = second compound 0.316 µM, first compound 10 µM
[19] = second compound 1 µM, first compound 0.0316 µM
[20] = second compound 1 µM, first compound 0.1 µM
[21] = second compound 1 µM, first compound 0.316 µM
[22] = second compound 1 µM, first compound 1 µM
[23] = second compound 1 µM, first compound 3.16 µM
[24] = second compound 1 µM, first compound 10 µM
[25] = second compound 3.16 µM, first compound 0.0316 µM
[26] = second compound 3.16 µM, first compound 0.1 µM
[27] = second compound 3.16 µM, first compound 0.316 µM
[28] = second compound 3.16 µM, first compound 1 µM
[29] = second compound 3.16 µM, first compound 3.16 µM
[30] = second compound 3.16 µM, first compound 10 µM
[31] = second compound 10 µM, first compound 0.0316 µM
[32] = second compound 10 µM, first compound 0.1 µM
[33] = second compound 10 µM, first compound 0.316 µM
[34] = second compound 10 µM, first compound 1 µM
[35] = second compound 10 µM, first compound 3.16 µM
[36] = second compound 10 µM, first compound 10 µM
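Note: spheroids exposed to compounds for seven days before readout.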

C#Cc1c(F)ccc2cc(O)cc(-c3ncc4c(N5CC6CCC(C5)N6)nc(OCC56CCCN5CC(F)C6)nc4c3F)c12 (stereo not drawn) + Cc1cccc(N(C)C(=O)C2C(O)CCN2c2nc(C)cc(C(F)(F)F)c2C#N)c1
inactive: viability, T/C [1] 106% | viability, T/C [2] 105% | viability, T/C [3] 108% | viability, T/C [4] 101% | viability, T/C [5] 105% | viability, T/C [6] 103% | viability, T/C [7] 103% | viability, T/C [8] 103% | viability, T/C [9] 102% | viability, T/C [10] 96.7% | viability, T/C [11] 103% | viability, T/C [12] 103% | viability, T/C [13] 106% | viability, T/C [14] 103% | viability, T/C [15] 99.4% | viability, T/C [16] 97.4% | viability, T/C [17] 114% | viability, T/C [18] 110% | viability, T/C [19] 109% | viability, T/C [20] 99.7% | viability, T/C [21] 106% | viability, T/C [22] 96.8% | viability, T/C [23] 111% | viability, T/C [24] 113% | viability, T/C [25] 101% | viability, T/C [26] 92.3% | viability, T/C [27] 97.5% | viability, T/C [28] 98.3% | viability, T/C [29] 107% | viability, T/C [30] 112% | viability, T/C [31] 102% | viability, T/C [32] 107% | viability, T/C [33] 112% | viability, T/C [34] 94.3% | viability, T/C [35] 102% | viability, T/C [36] 100%
> 10 µM: IC50 (second compound 0.0316 µM) | IC50 (second compound 0.1 µM) | IC50 (second compound 0.316 µM) | IC50 (second compound 1 µM) | IC50 (second compound 3.16 µM) | IC50 (second compound 10 µM)

CC(C)n1c(=O)n(C)c2cnc3cc(F)c(-c4ccc(OCCCN5CCCCC5)nc4)cc3c21 + Cc1cccc(N(C)C(=O)C2C(O)CCN2c2nc(C)cc(C(F)(F)F)c2C#N)c1
inactive: viability, T/C [1] 110% | viability, T/C [2] 113% | viability, T/C [3] 97.1% | viability, T/C [4] 84.5% | viability, T/C [5] 87.9% | viability, T/C [6] 57.6% | viability, T/C [7] 96.1% | viability, T/C [8] 104% | viability, T/C [9] 95.4% | viability, T/C [10] 85.8% | viability, T/C [11] 91.8% | viability, T/C [12] 56.3% | viability, T/C [13] 111% | viability, T/C [14] 104% | viability, T/C [15] 99.6% | viability, T/C [16] 87.4% | viability, T/C [17] 85.1% | viability, T/C [18] 60% | viability, T/C [19] 99.2% | viability, T/C [20] 92.6% | viability, T/C [21] 109% | viability, T/C [22] 94.1% | viability, T/C [23] 86.4% | viability, T/C [24] 56.2% | viability, T/C [25] 109% | viability, T/C [26] 101% | viability, T/C [27] 112% | viability, T/C [28] 97.5% | viability, T/C [29] 89.3% | viability, T/C [30] 56% | viability, T/C [31] 95.9% | viability, T/C [32] 97.8% | viability, T/C [33] 99.5% | viability, T/C [34] 94.2% | viability, T/C [35] 81.4% | viability, T/C [36] 33.9%
6.79 µM: IC50 (second compound 10 µM)
> 10 µM: IC50 (second compound 0.0316 µM) | IC50 (second compound 0.1 µM) | IC50 (second compound 0.316 µM) | IC50 (second compound 1 µM) | IC50 (second compound 3.16 µM)

CCc1cc2c(N3CCc4c(cc(Cn5ccnc5)cc4-c4cn(C)nc4C(F)(F)F)C3=O)cc(C)nc2c(OC)n1 + Cc1cccc(N(C)C(=O)C2C(O)CCN2c2nc(C)cc(C(F)(F)F)c2C#N)c1
9.61 µM: IC50 (second compound 3.16 µM)
6.32 µM: IC50 (second compound 10 µM)
7.37 µM: IC50 (second compound 1 µM)
2.91 µM: IC50 (second compound 0.0316 µM)
inactive: viability, T/C [1] 102% | viability, T/C [2] 134% | viability, T/C [3] 134% | viability, T/C [4] 72.5% | viability, T/C [5] 61.1% | viability, T/C [6] 35.2% | viability, T/C [7] 101% | viability, T/C [8] 144% | viability, T/C [9] 119% | viability, T/C [10] 91.1% | viability, T/C [11] 66.8% | viability, T/C [12] 39.1% | viability, T/C [13] 126% | viability, T/C [14] 147% | viability, T/C [15] 103% | viability, T/C [16] 111% | viability, T/C [17] 70.7% | viability, T/C [18] 39.4% | viability, T/C [19] 119% | viability, T/C [20] 125% | viability, T/C [21] 113% | viability, T/C [22] 81% | viability, T/C [23] 71.7% | viability, T/C [24] 42.4% | viability, T/C [25] 135% | viability, T/C [26] 128% | viability, T/C [27] 143% | viability, T/C [28] 95.3% | viability, T/C [29] 71.4% | viability, T/C [30] 46.1% | viability, T/C [31] 110% | viability, T/C [32] 132% | viability, T/C [33] 145% | viability, T/C [34] 98.2% | viability, T/C [35] 73.1% | viability, T/C [36] 36.1%
6.91 µM: IC50 (second compound 0.316 µM)
6.15 µM: IC50 (second compound 0.1 µM)

CCc1cc2c(N3CCc4c(cc(Cn5ccnc5)cc4-c4cn(C)nc4C(F)(F)F)C3=O)ccnc2c(OC)n1 + Cc1cccc(N(C)C(=O)C2C(O)CCN2c2nc(C)cc(C(F)(F)F)c2C#N)c1
inactive: viability, T/C [1] 111% | viability, T/C [2] 154% | viability, T/C [3] 110% | viability, T/C [4] 96.3% | viability, T/C [5] 70.9% | viability, T/C [6] 42.2% | viability, T/C [7] 99.9% | viability, T/C [8] 147% | viability, T/C [9] 113% | viability, T/C [10] 85.7% | viability, T/C [11] 79.6% | viability, T/C [12] 47.5% | viability, T/C [13] 102% | viability, T/C [14] 151% | viability, T/C [15] 107% | viability, T/C [16] 107% | viability, T/C [17] 80.4% | viability, T/C [18] 54.2% | viability, T/C [19] 125% | viability, T/C [20] 162% | viability, T/C [21] 110% | viability, T/C [22] 90% | viability, T/C [23] 79.7% | viability, T/C [24] 51.5% | viability, T/C [25] 138% | viability, T/C [26] 166% | viability, T/C [27] 103% | viability, T/C [28] 115% | viability, T/C [29] 74.7% | viability, T/C [30] 47.8% | viability, T/C [31] 116% | viability, T/C [32] 141% | viability, T/C [33] 158% | viability, T/C [34] 112% | viability, T/C [35] 88.3% | viability, T/C [36] 46.3%
> 10 µM: IC50 (second compound 0.1 µM) | IC50 (second compound 0.316 µM) | IC50 (second compound 1 µM)
7.34 µM: IC50 (second compound 0.0316 µM)
9.15 µM: IC50 (second compound 10 µM)
9.2 µM: IC50 (second compound 3.16 µM)
